Data published in patent US7732200B2, “Materials and methods for nerve grafting, selection of nerve grafts, and in vitro nerve tissue culture” (University of Florida Research Foundation, Inc., priority 2001, dated 2010).

System: sciatic nerve
Assay: Axonal regeneration into acellular interpositional nerve grafts (GAP-43 profiles)
Format: in vivo, rat
Excerpt: Preparation of acellular nerve grafts treated with chondroitinase: Adult (180-200 g) female SPRAGUE DAWLEY rats (HARLAN, Indianapolis, Ind.) were used as nerve donors and recipient hosts. Donor rats were anesthetized with halothane and decapitated. Sciatic nerves were exposed through a gluteal muscle-splitting incision and isolated free of underlying fascia. A 15-mm nerve segment was excised rostral to the bifurcation into common peroneal and tibial nerves. The segments were rinsed with cold sterile Ringer's solution, stabilized by pinning the ends to a thin plastic support, and transferred to a cryogenic vial. The vials were submerged in liquid nitrogen for 2 minutes and then transferred to a 37° C. water bath for 2 minutes. This freeze/thaw cycle was repeated, yielding acellular nerve grafts that were then stored in liquid nitrogen. On the day before grafting, the nerve grafts were warmed to room temperature and incubated in 100 μl phosphate buffered saline pH 7.4 (PBS) containing 2 units/ml chondroitinase ABC (SIGMA, St. Louis, Mo.) or in PBS (vehicle) only for 16 hours at 37° C. The grafts were rinsed twice with Ringer's and kept on ice prior to use. The chondroitinase ABC preparation was highly purified and stated by the manufacturer to be essentially free of protease activity.
Interpositional nerve grafting for chondroitinase experiments. Twelve rats received bilateral acellular nerve grafts, one chondroitinase-treated and one vehicle-treated graft. Host rats were deeply anesthetized using xylazine (15 mg/kg, i.m.) and ketamine (110 mg/kg, i.p.). The sciatic nerve was exposed and supported by a plastic insert placed between the nerve and underlying tissue. […]
The main grafts were sectioned serially on the transverse plane in recorded measure to assess the extent of axonal growth by microscopy. […] GAP-43-positive axon profiles were scored using IMAGE-PRO PLUS software (MEDIA CYBERNETICS, Silver Springs, Md.).
Immunocytochemistry. Axonal regeneration was assessed by GAP-43 immunofluorescence and digital image analysis. […]

chondroitinase ABC
axonal penetration vs control at 0.3 mm from the host-graft interface (4-day grafts, 3 animals): five-fold greater
average number of axons (GAP-43-immunopositive profiles) entering grafts vs control grafts (8-day grafts, 9 rats with bilateral grafts): more than three-fold greater
propensity of axons to grow within basal laminae (8-day grafts, GAP-43 and laminin double label): unaltered
